Data published in PMC6131760, “4-Phenyl-1,3-thiazole-2-amines as scaffolds for new antileishmanial agents” (The Journal of Venomous Animals and Toxins Including …, 2018).
Like-named read-outs stand apart in the source and are kept apart here.

How the values were obtained:
[1] = system: promastigotes of Leishmania amazonensis (MHOM/BR/1973/M2269); experiment: Antileishmanial assay against promastigotes (PrestoBlue viability); format: cell-based; settings: L. amazonensis promastigotes
Protocol: All compounds were assayed against promastigotes of Leishmania amazonensis (MHOM/BR/1973/M2269). Promastigotes were grown in 199 media (Sigma, USA) supplemented with 10% (v/v) of fetal bovine serum, 1% penicillin (10,000 UI/mL)/streptomycin (10.0 mg/mL) (Sigma, USA). The parasites were collected at log phase, they were counted at the Neubauer chamber, their concentration was adjusted to 1 × 10^6 cell/mL, and their cells were seeded at a 96-wells plate. The 4-phenyl-2-aminothiazoles were added to the culture, considering concentrations ranging from 3.2 to 142 μM. Compounds were diluted in Dimethyl sulfoxide (DMSO) (25 mg/mL) and diluted in 199 media to generate a 1% DMSO starting solution of each test compound. Positive control with no compounds and DMSO control were considered at the assay. All plates were incubated at 25 °C for 48 h, and PrestoBlue® vital dye was added to the wells.
Viability was accessed with PrestoBlue® (Invitrogen, ThermoFisher) according to the manufacturer’s instructions. The reagent was added in each well (10 μL) and plates incubated for 2 h. Then, plates were read on a microplate reader (PowerWave HT, Biotek) with excitation/emission 560/590 nm (nm). The relative fluorescence units were used to generate the quantitative results. All compounds were analyzed as duplicates, and the parameters to calculate IC50 were obtained by GraphPad Prism, version 5.0. IC50 values were determined by the Hill equation rearranged. LogIC50=logEC50−logTop−Bottom/Y−Bottom−1/HillSlope

THP1 cells = experiment: Cytotoxicity assay in THP-1 cells differentiated into macrophages (PrestoBlue); format: cell-based, human
Protocol: (§1) The cytotoxicity was measured in L929 and THP1 cell lines using PrestoBlue®Cell Viability Reagent (Thermo Scientific, Invitrogen) as described by Lall et al. with modifications. First, cells were maintained in RPMI 1640 (Gibco) supplemented with 10% fetal bovine serum (FBS) and 1% antibiotics (100 U/mL penicillin, 100 μg/mL streptomycin). Cell cultures were grown and maintained at 37 °C in a humidified incubator with 5% CO2. Then, L929 cells were seeded in 96-wells flat microtiter plate at a concentration of 1 × 10^5cells/mL (100 μL/well). To THP-1 cells, cultures were differentiated into macrophages by adding 50 ng/mL 12-myristate 13-acetate phorbol (PMA) (Calbiochem, San Diego, USA) in RPMI-free FBS. After 24 h of culturing, the adhered cells were washed with PBS and RPMI with 10% FBS were added. […] The plates were incubated for 48 h and, thereafter, 20 μL/well PrestoBlue® was added. The plates were incubated for further 2 h and the fluorescence was read at bottom using 540–570 nm excitation and 580–610 nm emission. The average of the fluorescence values of the control wells (medium plus PrestoBlue®) was subtracted from the fluorescence value of the positive controls (cells, medium, and PrestoBlue®) and from each experimental well (cells, medium, compounds and PrestoBlue®). In all cases, the CC50 was calculated as described as in the Antileishmanial assay Section. Selectivity indexes (SI) were calculated by dividing CC50 against each mammalian cell line by the IC50 against L. amazonensis (CC50/IC50).

L929 cells = experiment: Cytotoxicity assay in L929 cells (PrestoBlue); format: cell-based
Protocol: as §1

VERO cells = experiment: Cytotoxicity assay in Vero cells (MTT); format: cell-based, African green monkeys
Protocol: (§2) Cytotoxicity was also evaluated using Vero cells, a monkey kidney cell line obtained from the American Type Culture Collection (ATCC CCL-81; Manassas, VA). The cytotoxicity was determined by the 3-(4,5dimethylthiazol- 2-yl)-2,5-diphenyltetrazolium bromide (MTT) method according to a previously described procedure.
(§3) In all cases, the CC50 was calculated as described as in the Antileishmanial assay Section.
(§4) Selectivity indexes (SI) were calculated by dividing CC50 against each mammalian cell line by the IC50 against L. amazonensis (CC50/IC50).

[2] = Cytotoxicity assay in THP-1 cells differentiated into macrophages (PrestoBlue); format: cell-based, human; settings: human, THP-1 cells differentiated into macrophages with PMA; PMA-differentiated THP-1, 48 h, PrestoBlue; read-out: CC50 THP1 cells
Protocol: as §1

[3] = Cytotoxicity assay in L929 cells (PrestoBlue); format: cell-based; settings: mouse, L929 fibroblast cells; L929 fibroblasts, 48 h, PrestoBlue
Protocol: as §1

[4] = Cytotoxicity assay in Vero cells (MTT); format: cell-based, African green monkeys; settings: African green monkey, Vero cells (monkey kidney cell line, ATCC CCL-81); Vero cells, MTT
Protocol: as §2, §3, §4

[5] = Leishmania amazonensis, 48 h, 48 h at 25 °C, PrestoBlue, 3.2 to 142 μM tested, read-out: IC50
[6] = PMA-differentiated THP-1, 48 h, PrestoBlue, read-out: CC50 THP1 cells
[7] = L929 fibroblasts, 48 h, PrestoBlue, read-out: CC50 L929 cells
[8] = Vero cells, MTT, read-out: CC50 VERO cells
[9] = 48 h at 25 °C, PrestoBlue, 3.2 to 142 μM tested, read-out: IC50

`C[C@@H]1[C@H](O)[C@@H](C)/C=C/C=C/C=C/C=C/C=C/C=C/C=C/[C@H](O[C@@H]2O[C@H](C)[C@@H](O)[C@H](N)[C@@H]2O)C[C@@H]2O[C@](O)(C[C@@H](O)C[C@@H](O)[C@H](O)CC[C@@H](O)C[C@@H](O)CC(=O)O[C@H]1C)C[C@H](O)[C@H]2C(=O)O` [Amphotericin B, reference compound] gave an IC50 [1, 5] of 16.2 µM.

Compound `Nc1nc(-c2ccccc2)cs1` [Compound 1] has a pIC50 ([1]; pIC50 = −log10 (IC50)) of 3.02, a CC50 (THP1 cells; [6]) of 144 µM and a CC50 (L929 cells; [7]) of 198 µM. For the same compound, the CC50 (VERO cells; [8]) was 710 µM.

Work on `Cc1ccc(-c2csc(N)n2)cc1` [Compound 2] yielded an IC50 [1, 9] of 108 µM, a pIC50 ([1]; pIC50 = −log10 (IC50)) of 3.97 and a CC50 (THP1 cells; [6]) of 135 µM. For the same compound, the CC50 (L929 cells; [7]) was 160 µM and the CC50 (VERO cells; [8]) was 658 µM.

Compound `CCc1ccc(-c2csc(N)n2)cc1` [Compound 3] has an IC50 [1, 9] of 46.6 µM, a pIC50 ([1]; pIC50 = −log10 (IC50)) of 4.33 and a CC50 (THP1 cells) of 117 µM. It also gave a CC50 (L929 cells) of 95.5 µM and a CC50 (VERO cells) of 1220 µM.

Work on `Nc1nc(-c2ccc(Cl)c(Cl)c2)cs1` [Compound 4] yielded a pIC50 ([1]; pIC50 = −log10 (IC50)) of 4.27, a CC50 (THP1 cells; [6]) of 84.7 µM and a CC50 (L929 cells; [7]) of 121 µM. It also gave a CC50 (VERO cells; [8]) of 255 µM.

`Nc1nc(-c2ccc(C(F)(F)F)cc2)cs1` [Compound 5] showed a pIC50 ([1]; pIC50 = −log10 (IC50)) of 4.27, a CC50 (THP1 cells; [6]) of 92.2 µM and a CC50 (L929 cells; [7]) of 106 µM. For the same compound, the CC50 (VERO cells; [8]) was 512 µM.

`CC(C)(C)c1ccc(-c2csc(N)n2)cc1` [Compound 6] showed an IC50 [1, 9] of 20.8 µM, an IC50 [1, 5] of 21 µM and an IC50 ([1]; Leishmania amazonensis, pIC50 = −log10 (IC50), read-out: pIC50 (converted)) of 20.9 µM. The CC50 at 48 h [2] was 45.7 µM, the CC50 at 48 h [3] was 27.1 µM and the CC50 [4] was 118 µM. The melting point was 227 to 230 °C.

With `Nc1nc(-c2ccc(O)cc2)cs1` [Compound 7] the IC50 ([1]; 48 h at 25 °C, PrestoBlue, 3.2 to 142 μM tested) was “inactive”, the pIC50 ([1]; pIC50 = −log10 (IC50)) was “inactive” and the “CC50 THP1 cells” value (THP1 cells; PMA-differentiated THP-1, 48 h, PrestoBlue) was “inactive”. The “CC50 L929 cells” value (L929 cells; L929 fibroblasts, 48 h, PrestoBlue) was “Inactive” and the CC50 (VERO cells; [8]) was 651 µM.

With `Nc1nc(-c2ccc(Cl)cc2)cs1` [Compound 8] the IC50 [1, 9] was 116 µM, the pIC50 ([1]; pIC50 = −log10 (IC50)) was 3.94 and the CC50 (THP1 cells; [6]) was 82.2 µM. The CC50 (L929 cells; [7]) was 115 µM and the CC50 (VERO cells; [8]) was 596 µM.

Work on `N=C(N)c1ccc(OCCCCCOc2ccc(C(=N)N)cc2)cc1` [Pentamidine, reference compound] yielded an IC50 [1, 5] of 10.8 µM.
